# ChEMBL document CHEMBL1240307, “A functional genomics approach to the mode of action of apratoxin A” (Nat Chem Biol, 2006)
# Key:
# Type in all cases: functional
# A549 = assay: Cytotoxicity against human A549 cells by sulforhodamine B assay
# U2OS [1] = assay: Cell cycle arrest in human U2OS cells assessed as accumulation at S phase at 5 nM after 24 hrs by FACS analysis (reference value: 37.3%)
# SF-539 = assay: Cytotoxicity against human SF539 cells by sulforhodamine B assay
# HT-29 [2] = assay: Antitumor activity against human HT-29 cells assessed as down-regulation of GTSE1 mRNA expression at 2 nM after 12 hrs relative to control
# OVCAR-4 = assay: Cytotoxicity against human OVCAR4 cells by sulforhodamine B assay
# HT-29 [3] = assay: Antitumor activity against human HT-29 cells assessed as down-regulation of TAL1 mRNA expression at 10 nM after 3 hrs relative to control
# NCI-H522 = assay: Cytotoxicity against human NCI-H522 cells by sulforhodamine B assay
# HT-29 [4] = assay: Antitumor activity against human HT-29 cells assessed as down-regulation of CCNE2 mRNA expression at 10 nM after 12 hrs relative to control
# SK-MEL-2 = assay: Cytotoxicity against human SK-MEL-2 cells by sulforhodamine B assay
# HT-29 [5] = assay: Antitumor activity against human HT-29 cells assessed as down-regulation of CCNE2 mRNA expression at 10 nM after 3 hrs relative to control
# COLO 205 = assay: Cytotoxicity against human COLO205 cells by sulforhodamine B assay
# SN12C = assay: Cytotoxicity against human SN12C cells by sulforhodamine B assay
# U-251 = assay: Cytotoxicity against human U251 cells by sulforhodamine B assay
# HCT-15 = assay: Cytotoxicity against human HCT15 cells by sulforhodamine B assay
# NCI-H460 = assay: Cytotoxicity against human NCI-H460 cells by sulforhodamine B assay
# LOX IMVI = assay: Cytotoxicity against human LOXIMVI cells by sulforhodamine B assay
# UACC-62 = assay: Cytotoxicity against human UACC62 cells by sulforhodamine B assay
# HT-29 [6] = assay: Antitumor activity against human HT-29 cells assessed as upregulation of MGC4504 mRNA expression at 2 nM after 3 hrs relative to control
# MOLT-4 = assay: Cytotoxicity against human MOLT4 cells by sulforhodamine B assay
# HT-29 [7] = assay: Antitumor activity against human HT-29 cells assessed as down-regulation of TAL1 mRNA expression at 2 nM after 6 hrs relative to control
# ACHN = assay: Cytotoxicity against human ACHN cells by sulforhodamine B assay
# HT-29 [8] = assay: Antitumor activity against human HT-29 cells assessed as upregulation of MGC4504 mRNA expression at 2 nM after 12 hrs relative to control
# HT-29 [9] = assay: Antitumor activity against human HT-29 cells assessed as down-regulation of CCNE2 mRNA expression at 10 nM after 6 hrs relative to control
# U2OS [10] = assay: Induction of apoptosis in human U2OS cells assessed as caspase3 dependent cleavage of Ac-DEVD-pNA at 50 nM after 6-48 hrs by […] relative to control
# HT-29 [11] = assay: Antitumor activity against human HT-29 cells assessed as upregulation of HSPA1A mRNA expression at 10 nM after 6 hrs relative to control
# U2OS [12] = assay: Cell cycle arrest in human U2OS cells assessed as accumulation at G1 phase at 50 nM after 24 hrs by FACS analysis (reference value: 49.8%)
# HT-29 [13] = assay: Antitumor activity against human HT-29 cells assessed as down-regulation of TAL1 mRNA expression at 2 nM after 3 hrs relative to control
# HCC 2998 = assay: Cytotoxicity against human HCC2998 cells by sulforhodamine B assay
# HT-29 [14] = assay: Antitumor activity against human HT-29 cells assessed as upregulation of KCNK10 mRNA expression at 10 nM after 6 hrs relative to control
# HT-29 [15] = assay: Antitumor activity against human HT-29 cells assessed as down-regulation of CDC25A mRNA expression at 10 nM after 6 hrs relative to control
# KM12 = assay: Cytotoxicity against human KM12 cells by sulforhodamine B assay
# SR = assay: Cytotoxicity against human SR cells by sulforhodamine B assay
# HT-29 [16] = assay: Antitumor activity against human HT-29 cells assessed as down-regulation of CCNE2 mRNA expression at 2 nM after 3 hrs relative to control
# [17] = read-out: LC50 (the source's name)
compound,measurement,setting,value
CC[C@H](C)[C@H]1C(=O)N2CCC[C@H]2C(=O)O[C@H](C(C)(C)C)C[C@@H](C)C[C@H](O)[C@H](C)C2=N[C@@H](/C=C(\C)C(=O)N[C@@H](Cc3ccc(OC)cc3)C(=O)N(C)[C@@H](C)C(=O)N1C)CS2 [APRATOXIN A],GI50,A549,5.38 nM
same,inhibition at 0.005 µM,U2OS [1],28.2%
same,GI50,SF-539,0.503 nM
same,CC50,SF-539; [17],69.4 nM
same,fold change (FC),HT-29 [2],<=2
same,GI50,OVCAR-4,> 100 nM
same,fold change (FC),HT-29 [3],<=2
same,GI50,NCI-H522,6.03 nM
same,fold change (FC),HT-29 [4],-2.17
same,GI50,SK-MEL-2,> 100 nM
same,fold change (FC),HT-29 [5],<=2
same,GI50,COLO 205,2.71 nM
same,GI50,SN12C,3.94 nM
same,GI50,U-251,1.56 nM
same,GI50,HCT-15,4.29 nM
same,GI50,NCI-H460,2.77 nM
same,GI50,LOX IMVI,2.3 nM
same,CC50,LOX IMVI; [17],23.2 nM
same,GI50,UACC-62,3.28 nM
same,fold change (FC),HT-29 [6],<=2
same,GI50,MOLT-4,48 nM
same,fold change (FC),HT-29 [7],<=2
same,GI50,ACHN,2.69 nM
same,fold change (FC),HT-29 [8],5.19
same,fold change (FC),HT-29 [9],<=2
same,fold change (FC),U2OS [10],20
same,fold change (FC),HT-29 [11],2.68
same,inhibition at 0.05 µM,U2OS [12],68.3%
same,fold change (FC),HT-29 [13],-2.52
same,GI50,HCC 2998,3.65 nM
same,fold change (FC),HT-29 [14],7.38
same,fold change (FC),HT-29 [15],<=2
same,GI50,KM12,3.52 nM
same,GI50,SR,1.5 nM
same,CC50,SR; [17],27.4 nM
same,fold change (FC),HT-29 [16],<=2
